Data taken from patent US12324843B2, “Compositions and methods for delivery of biomacromolecule agents” (The Regents of the University of Michigan, priority 2015, dated 2025).
Residues, ends and D or L forms follow the SMILES beside them. *: point of attachment. FITC = O=C1OC2(c3ccc(O)cc3Oc3cc(O)ccc32)c2ccc(NC(=S)*)cc21

Experiment: Lymph node draining study (IVIS)
Assay type: in vivo, C57BL/6 mice
Details: 31 nmol s.c. at tail base, after 1 day
Method: sHDL-[…](FITC)L was prepared as described above. Female C57BL/6 mice of age 6-8 weeks were purchased from Harlan Laboratories. C57BL/6 mice were subcutaneously injected with free […](FITC)L or sHDL-[…](FITC)L. 24 hours after injection, mice were euthanized by carbon dioxide inhalation and axillary lymph nodes and inguinal lymph nodes were harvested and imaged with IVIS optical imaging system (Caliper Lifesciences).
For lymph node draining studies, C57BL/6 mice were injected with free CSSSIINFBK(FITC)L, sHDL-CSSSIINFBK(FITC)L, free Cho-CpG(Cy5), or sHDL-Cho-CpG(Cy5). After 24 h, inguinal lymph nodes were harvested, and FITC or Cy5 fluorescence signal was measured with IVIS optical imaging system (Caliper Life Sciences).

FITC signal in inguinal dLNs: minimal FITC signal in inguinal dLNs
SMILES: CC[C@H](C)[C@H](NC(=O)[C@H](CO)NC(=O)[C@H](CO)NC(=O)[C@H](CO)NC(=O)[C@@H](N)CS)C(=O)N[C@H](C(=O)N[C@@H](CC(N)=O)C(=O)N[C@@H](Cc1ccccc1)C(=O)N[C@@H](CCC(=O)O)C(=O)N[C@@H](CCCCNC(=S)Nc1ccc2c(c1)C(=O)OC21c2ccc(O)cc2Oc2cc(O)ccc21)C(=O)N[C@@H](CC(C)C)C(=O)O)[C@@H](C)CC [free CSS-SIINFEK(FITC)L] (H-CSSSIINFEK(FITC)L-OH)
